Reference: patent US20140017187A1, “Use of 5-(7-methoxy-3,3-dimethyl-2,3-dihydro-1-benzoxepin-5-yl)-3-methyl-penta-2,4-dienoic acid as a cosmetic” (Merck Patent GmbH, priority 2008, published 2014)
Several values for one entry are separate records, joined by “and”; a condition that tells them apart may be missing. Equal values may be shown once.

Tests used:
[1] = biological target: T1, PPARα (Homo sapiens, UniProt Q07869); assay: PPARα luciferase reporter gene activation in SK-Hep1 cells cotransfected with PPARα expression vector; type: cell-based; conditions: for Fold Activation PPAR alpha, MEAN: mean of the two experiments in triplicate; for Fold Activation PPAR alpha: single values of triplicates, two experiments, relative to control; for balance of stimulation of PPAR-alpha and -gamma receptors: both receptors activated in the same concentration range
T1 construct: expressed in transfected cells; host or cells: human SK-Hep1 cells
T1 sequence (Q07869 1-468): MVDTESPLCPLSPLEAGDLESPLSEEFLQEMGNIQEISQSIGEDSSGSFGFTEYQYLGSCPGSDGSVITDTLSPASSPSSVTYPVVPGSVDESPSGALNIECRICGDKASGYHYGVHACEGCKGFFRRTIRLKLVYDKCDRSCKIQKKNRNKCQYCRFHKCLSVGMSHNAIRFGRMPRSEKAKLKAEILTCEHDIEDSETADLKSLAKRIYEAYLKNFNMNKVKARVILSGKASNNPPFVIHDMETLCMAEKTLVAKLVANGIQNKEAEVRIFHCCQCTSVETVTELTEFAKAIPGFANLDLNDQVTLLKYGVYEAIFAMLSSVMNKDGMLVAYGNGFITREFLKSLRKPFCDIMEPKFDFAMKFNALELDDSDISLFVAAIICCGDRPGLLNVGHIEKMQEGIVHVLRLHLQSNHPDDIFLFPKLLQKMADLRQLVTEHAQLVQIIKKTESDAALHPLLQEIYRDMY
Text: (§1) Analysis of the activation of PPARα and PPARγ is based on the transfection of a DNA allowing the expression of a reporter gene (the gene of luciferase) under the control of the PPARs, either endogenous in the case of PPARγ or cotransfected in the case of PPARα. The reporter plasmid J3TkLuc comprises three copies of the response element for PPARs of the human apo A-II gene (Staels, B et al. (1995), J. Clin. Invest., 95, 705-712) which are cloned upstream of the promoter of the thymidine kinase gene of the herpes simplex virus in the plasmid pGL3. This reporter gene was obtained by subcloning, in the plasmid pGL3, the plasmid J3TkCAT described above (Fajas, L et al. (1997), J. Biol. Chem., 272, 18779-18789). […] These cells were inoculated at a density of 20,000 cells per well (96-well plates) and transfected with 150 ng of reporter DNA complexed with a mixture of lipids. In the case of the SK-Hep1 cells, an expression vector for PPARα, described by Sher, T. et al. (1993), Biochemistry, 32, 5598-5604, is cotransfected. After 5 hours, the cells are washed twice and incubated for 36 hours in the presence of the test compound in a fresh culture medium comprising 10% foetal calf serum. At the end of incubation, the cells are lysed and the luciferase activity is measured.

[2] = test system: PPARγ; assay: PPARγ luciferase reporter gene activation in CV1 cells expressing endogenous PPARγ; type: cell-based, green monkey; conditions: for Fold Activation PPAR gamma, MEAN: mean of the two experiments in triplicate; for Fold Activation PPAR gamma: single values of triplicates, two experiments, relative to control
Text: as §1

[3] = test system: B16-V melanoma cells; assay: Inhibition of melanin synthesis in B16-V melanoma cells (alpha-MSH stimulated); type: cell-based; conditions: 72 h, alpha-MSH stimulation
Experimental: DMSO is the solvent as negative and IBMX (3-Isobutyl-1-methylxantine) is our positive control. Kojic acid (KA) is the known reference ingredient for skin whitening.
B16-V melanoma cells were incubated for 72 h with assay medium containing different amounts of test substances. The concentration depends on the results of the MTT-Assay. Only concentrations without effect on viability (after 24 h incubation) were used for further melanin evaluation. Every 24 hours medium was changed and replaced by fresh assay medium containing the compounds and alpha-MSH (stimulation of melanin synthesis). The cell number was determined and the cells got lysed using 1M NaOH. Afterwards the amount of melanin was measured at 405 nm with a microplatereader (Safire2™, Tecan). Different concentrations of synthetic melanin were used to produce a calibration curve. Melanin content was expressed as pg/cell.

[4] = test system: animal models; conditions: in vivo
[5] = Skin/eye irritation test (in house data)
[6] = Phototoxic and photo-allergenic potential (in house data)

SMILES: COc1ccc2c(c1)C(/C=C/C(C)=C/C(=O)O)=CC(C)(C)CO2 [Compound, 5-(7-methoxy-3,3-dimethyl-2,3-dihydro-1-benzoxepin-5-yl)-3-methyl-penta-2,4-dienoic acid]
- Fold Activation PPAR alpha, MEAN ([1]; 0.3 μm): 1.4 fold
- Fold Activation PPAR alpha ([1]; 0.3 μm): 0.7 fold and 0.8 fold and 0.6 fold and 0.5 fold
- Fold Activation PPAR alpha, MEAN ([1]; 1 μm): 0.7 fold
- Fold Activation PPAR alpha, MEAN ([1]; 3 μm): 0.8 fold
- Fold Activation PPAR alpha ([1]; 3 μm): 0.6 fold and 0.7 fold and 1.0 fold and 1.1 fold and 0.8 fold
- Fold Activation PPAR alpha, MEAN ([1]; 10 μm): 1.2 fold
- Fold Activation PPAR alpha, MEAN ([1]; 30 μm): 4.9 fold
- Fold Activation PPAR alpha, MEAN ([1]; 50 μm): 8.0 fold
- Fold Activation PPAR alpha, MEAN ([1]; 100 μm): 6.9 fold
- balance of stimulation of PPAR-alpha and -gamma receptors [1]: well-balanced stimulation
- balance of stimulation of PPAR-alpha and -gamma receptors ([1]; listed as EMD 336340): balanced activity
- Fold Activation PPAR gamma, MEAN ([2]; 0.3 μm): 0.9 fold
- Fold Activation PPAR gamma, MEAN ([2]; 1 μm): 1.0 fold
- Fold Activation PPAR gamma ([2]; 1 μm): 0.8 fold and 1.2 fold and 0.9 fold and 1.0 fold and 1.3 fold
- Fold Activation PPAR gamma, MEAN ([2]; 3 μm): 1.5 fold
- Fold Activation PPAR gamma ([2]; 3 μm): 1.2 fold and 1.6 fold and 1.3 fold and 2.1 fold
- Fold Activation PPAR gamma, MEAN ([2]; 10 μm): 5.2 fold
- Fold Activation PPAR gamma, MEAN ([2]; 30 μm): 14.4 fold
- Fold Activation PPAR gamma, MEAN ([2]; 50 μm): 17.6 fold
- Fold Activation PPAR gamma, MEAN ([2]; 100 μm): 15.2 fold
- melanin inhibiting activity (melanin content pg/cell, FIG. 1) [3]: superb melanin inhibiting activity
- melanin inhibiting activity compared with kojic acid (FIG. 1) [3]: significantly better than kojic acid
- toxic effect in animal models [4]: no toxic effect
- skin/eye irritation [5]: no skin/eye irritation
- phototoxicity [6]: no phototoxic
